Experiment [1] has as its target E. coli PBP1a (Escherichia coli (strain K12), UniProt P02918). The experiment in a line: Radioligand competition binding assay with 14C-labeled boronic acid probe, PBP1a. The source says:
To determine the ability of boronic acid-based test PBP inhibitors to bind Penicillin Binding Proteins (PBPs), a radio-labelled boronic acid PBP inhibitor
[drawing 751] was used in competition binding assays to determine boronic acid PBP inhibitor binding to PBP1a or PBP1b from Escherichia coli. PBP1a and PBP1b were purified as described previously (Bertsche, U.; et al., J. Biol. Chem. 2005, 280 (45), 38096-38101; Born, P.; et al., J. Biol. Chem. 2006. 281 (37), 26985-26993). To establish assay conditions for competition binding, an enzyme titration/saturation binding experiment was performed. Saturation binding was performed in a buffer comprised of 20 mM Tris (pH 7.5), 500 mM NaCl and 0.1% (v/v) TritonX-100, with PBP1a/PBP1b at a final concentration of 0.1 μM and Compound A at final concentrations ranging from 0-100 μM. Mixtures were incubated for 60 minutes, then applied to Zeba Spin Desalting columns or plates (ThermoFisher Scientific) and centrifuged at 1000-1500×g for 2 minutes. The flow through, containing PBP bound with Compound A, was recovered and 100 μL mixed with 5 mL of UltimaGold liquid scintillation cocktail (Perkin Elmer), and the radioactivity counted using a Beckman Coulter LS 6500 Multipurpose scintillation counter. PBP binding of Compound A approached saturation at 20 μM of ^14C-labeled probe. The competition binding assay was validated using the beta-lactam ampicillin, with Compound A at a final concentration of 20 μM, PBP1a/PBP1b at a final concentration of 0.1 μM. PBP1a/PBP1b was incubated with ampicillin in a 96-well microplate for 60 minutes, then Compound A was added and the mixtures incubated for an additional 60 minutes. The mixtures were then applied to Zeba Spin desalting plates and centrifuged at 1000×g for 2 minutes. The flow through was recovered and 100 μl mixed with 5 ml of UltimaGold liquid scintillation cocktail and the radioactivity counted. […] Binding assays with boronic acid PBP inhibitors were performed in an identical fashion. The potency of boronic acid PBP inhibitors was reported as the EC50 value.
In general terms: Displacement assays read how much labelled ligand stays bound in the presence of the test substance.

The target in experiment [2] is E. coli PBP3 (Escherichia coli (strain K12), UniProt P0AD68). The experiment is described as follows: E. coli PBP3 Bocillin-FL fluorescence polarization competition binding assay. Summed up: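 FP competition: 1.5 μM PBP, 0.1 μM Bocillin-FL, cpd 0–1000 μM; 50 mM Hepes pH 8.0/300 mM NaCl/5% glycerol. Read 490/520 nm immediately after Bocillin-FL addition, 60 min. EC50 = cpd conc. lowering probe binding.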

In experiment [3] the test system is P. aeruginosa PAO1. The experiment is described as follows: Broth microdilution MIC, P. aeruginosa PAO1. The conditions noted are these: Pseudomonas aeruginosa; P. aeruginosa PAO1, broth microdilution; read-out: MIC P. aeruginosa PAO1. The experiment is classed as cell-based. As to the method: (§1) To determine the ability of test compounds to potentiate the inhibition of the growth of bacterial strains, classic cell based broth microdilution minimum inhibitory concentration (MIC) assays were employed. MIC assays are performed according to CLSI methods except where otherwise noted (CLSI, 2011 and CLSI, 2009). The reference type strain E. coli ATCC 25922, the wild-type parent strain E. coli AG100, the hyper-permeable E. coli 901C and E. coli D22 and the E. coli AG100A strain lacking the acrAB efflux pump encoding genes were used to determine the ability of the PBP inhibitors to penetrate the outer membrane of gram-negative bacteria and inhibit bacterial growth. […] The P. aeruginosa PAO1, P. aeruginosa ATCC 27853 and A. baumannii ATCC 19606, along with the hyper-permeable P. aeruginosa ATCC 35151 and an engineered efflux pump-compromised strain of P. aeruginosa (ΔmexAB-oprM) were used to determine the ability of PBP inhibitors to penetrate the outer membrane of P. aeruginosa and A. baumannii and assess antibacterial activity against these important gram-negative organisms.
(§2) Briefly, cryo-preserved bacterial cultures of challenge strains are streaked for isolation on appropriate agar medium, in this case Mueller Hinton II agar. Following incubation to allow growth of the colonies, plates are sealed with parafilm and stored refrigerated for up to two weeks. For preparation of assay inoculum and to ensure low variability, at least 5 colonies are picked from the agar plates with an inoculating loop and aseptically transferred to a culture tube containing 3 mL of Mueller-Hinton Broth (supplemented with divalent cations to required levels based on Manufacturers' certification). The broth culture is grown for 3-5 hours at 37° C. with shaking at 200 rpm. Meanwhile, 2-fold serial dilutions of test compounds are conducted in a 96 well plate with a final volume of 75 μL per well at 2-fold the final desired concentration. After the dilution plates are set up the growing cultures are then diluted in a cuvette containing MH II broth and the optical density is measured at 600 nm. The Inoculum is diluted such that 75 μL of this culture in Mueller-Hinton Broth results in a starting bacterial concentration of 5×10^5 CFU/mL when added to the dilution plates. The plates are incubated for 16-20 hours at 37° C. The MIC values are read visually as the lowest concentration well with no bacterial growth.
(Broth dilution looks for growth in wells or tubes with falling amounts of substance.)

The subject of experiment [4] is A. baumannii ATCC 19606. The experiment is described as follows: Broth microdilution MIC, A. baumannii ATCC 19606. In kind it is cell-based. The conditions noted are these: Acinetobacter baumannii, ATCC19606; A. baumannii ATCC 19606, broth microdilution; read-out: MIC A. baumannii ATCC 19606. As to the method: as §1, §2
Experiment [5] concerns P. aeruginosa (ΔmexAB-oprM). The experiment is described as follows: microbe, parasite or virus in culture. In kind it is cell-based. The conditions noted are these: Pseudomonas aeruginosa, read-out: MIC P. aeruginosa ΔmexAB-OprM. Summed up: (§3)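 Colonies from Mueller Hinton II agar were grown 3-5 hours at 37° C in cation-supplemented broth, adjusted by OD600, then added to 2-fold compound dilutions at 5×10^5 CFU/mL. After 16-20 hours at 37° C, MICs were scored visually.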

Experiment [6] relates to P. aeruginosa ATCC 35151. The experiment is described as follows: microbe, parasite or virus in culture. The experiment is classed as cell-based. The conditions noted are these: Pseudomonas aeruginosa, ATCC35151; hyper-permeable P. aeruginosa ATCC 35151; read-out: MIC P. aeruginosa ATCC 35151. Summed up: as §3
The target of experiment [7] is E. coli PBP2 (Escherichia coli (strain K12), UniProt P0AD65). The experiment is described as follows: E. coli PBP2 Bocillin-FL fluorescence polarization competition binding assay. The conditions noted are these: fluorescence polarization competition binding with Bocillin-FL; read-out: E. coli K12 PBP2 Potency (EC50). The text has this: To determine the ability of boronic acid-based test PBP inhibitors to bind Penicillin Binding Proteins (PBPs), Bocillin-FL (fluorescently-labeled penicillin V; ThermoFisher Scientific) was used in a fluorescence polarization (FP) competition binding assay to assess inhibitor binding to PBP2, PBP3 or PBP4 from Escherichia coli. PBPs were cloned and purified as described previously (King, D. T, et al., ACS Infectious Diseases 2015, 1, 175-184). To establish assay conditions for competition binding, an enzyme titration/saturation binding experiment was initially performed. Bocillin-FL was prepared at 0.2 μM in a buffer comprised of 50 mM Hepes (pH 8.0), 300 mM NaCl and 5% (v/v) glycerol. Saturation binding was performed by mixing 40 μl of PBP solutions ranging in concentrations from 0-12 μM with 40 μl of the 0.2 μM Bocillin-FL solution, in individual wells of a black 384-well microplate. FP was measured immediately upon mixing (Excitation, 490 nm; Emission, 520 nm; g-factor, 0.96), using a Cytation3 (BioTek) microplate reader and measured continuously for up to 120 minutes. […] For all PBPs the FP signal approached saturation with 1.5 μM PBP (final concentration). […] Assays (80 μl final volume) were performed with PBPs at a final concentration of 1.5 μM, Bocillin-FL at 0.1 μM and beta-lactam concentrations that ranged from 0-1000 μM. […] Bocillin-FL was added and the FP immediately measured for 60 minutes (90 minutes for PBP2). The beta-lactam potency was reported as the concentration of beta-lactam required to reduce binding of Bocillin-FL by […] (EC50). […] Binding assays for boronic acid PBP inhibitors were performed in an identical fashion.
For orientation: Polarisation of emitted light reports the rotation of a fluorescent probe.

Experiment [8] has as its system engineered strain of Escherichia coli harboring CTX-M15. The experiment is described as follows: microbe, parasite or virus in culture. The experiment is classed as cell-based. The conditions noted are these: Escherichia coli, read-out: Microbiological Activity (MIC in mg/L), E. coli DH5α/pLBII-CTX-M15, engineered strain producing CTX-M15.
Experiment [9] deals with E. coli 901C. The experiment is described as follows: microbe, parasite or virus in culture. The experiment is classed as cell-based. The conditions noted are these: Escherichia coli; hyper-permeable E. coli 901C, broth microdilution; read-out: MIC E. coli 901C. Summed up: as §3
For experiment [10], the system named is K. pneumoniae UMM. The experiment in a line: microbe, parasite or virus in culture. In kind it is cell-based. The conditions noted are these: Klebsiella pneumoniae; K. pneumoniae UMM producing SHV-5 and KPC-2; read-out: MIC K. pneumoniae UMM. The method, boiled down:
as §3

Experiment [11] concerns E. coli AG100A. The experiment in a line: microbe, parasite or virus in culture. In kind it is cell-based. The conditions noted are these: Escherichia coli, read-out: MIC E. coli AG100A. Summed up:
as §3

For experiment [12], the system named is E. coli AG100. The experiment is described as follows: Broth microdilution MIC, E. coli AG100 (wild-type parent). In kind it is cell-based. The conditions noted are these: Escherichia coli; wild-type parent E. coli AG100, broth microdilution; read-out: MIC E. coli AG100. Summed up:
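Broth microdilution in cation-supplemented Mueller-Hinton broth, 2-fold serial compound dilutions, inoculum 5×10^5 CFU/mL from 3-5 h log culture.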

In experiment [13] the test system is E. coli ATCC 25922. The experiment in a line: Broth microdilution MIC, E. coli ATCC 25922. The experiment is classed as cell-based. The conditions noted are these: Escherichia coli, ATCC25922; E. coli ATCC 25922, broth microdilution; read-out: MIC E. coli 25922. The method, boiled down:
as §3

These results are taken from US12173018B2, “Penicillin-binding protein inhibitors” (priority 2018, dated 2024).

In brackets after ≈: the same amount, converted by molar mass. Read-outs that look alike come from different tables or passages of the source.

Chain of E. coli PBP3 (P0AD68 whole entry): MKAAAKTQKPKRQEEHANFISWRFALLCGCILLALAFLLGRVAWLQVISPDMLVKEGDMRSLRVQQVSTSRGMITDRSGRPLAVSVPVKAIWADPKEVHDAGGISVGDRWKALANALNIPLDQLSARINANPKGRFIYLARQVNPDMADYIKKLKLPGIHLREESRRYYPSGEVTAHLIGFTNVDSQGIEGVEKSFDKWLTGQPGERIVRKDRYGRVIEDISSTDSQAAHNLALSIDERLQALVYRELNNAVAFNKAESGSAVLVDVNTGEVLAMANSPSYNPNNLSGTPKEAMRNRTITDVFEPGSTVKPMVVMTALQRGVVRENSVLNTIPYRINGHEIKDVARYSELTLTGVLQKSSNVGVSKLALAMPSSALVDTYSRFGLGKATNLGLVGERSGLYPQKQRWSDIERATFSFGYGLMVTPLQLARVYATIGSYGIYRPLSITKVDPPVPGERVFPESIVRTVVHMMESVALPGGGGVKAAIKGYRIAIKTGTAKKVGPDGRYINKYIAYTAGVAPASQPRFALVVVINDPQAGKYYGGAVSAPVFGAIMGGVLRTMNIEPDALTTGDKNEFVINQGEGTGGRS
Chain of E. coli PBP1a (P02918 whole entry): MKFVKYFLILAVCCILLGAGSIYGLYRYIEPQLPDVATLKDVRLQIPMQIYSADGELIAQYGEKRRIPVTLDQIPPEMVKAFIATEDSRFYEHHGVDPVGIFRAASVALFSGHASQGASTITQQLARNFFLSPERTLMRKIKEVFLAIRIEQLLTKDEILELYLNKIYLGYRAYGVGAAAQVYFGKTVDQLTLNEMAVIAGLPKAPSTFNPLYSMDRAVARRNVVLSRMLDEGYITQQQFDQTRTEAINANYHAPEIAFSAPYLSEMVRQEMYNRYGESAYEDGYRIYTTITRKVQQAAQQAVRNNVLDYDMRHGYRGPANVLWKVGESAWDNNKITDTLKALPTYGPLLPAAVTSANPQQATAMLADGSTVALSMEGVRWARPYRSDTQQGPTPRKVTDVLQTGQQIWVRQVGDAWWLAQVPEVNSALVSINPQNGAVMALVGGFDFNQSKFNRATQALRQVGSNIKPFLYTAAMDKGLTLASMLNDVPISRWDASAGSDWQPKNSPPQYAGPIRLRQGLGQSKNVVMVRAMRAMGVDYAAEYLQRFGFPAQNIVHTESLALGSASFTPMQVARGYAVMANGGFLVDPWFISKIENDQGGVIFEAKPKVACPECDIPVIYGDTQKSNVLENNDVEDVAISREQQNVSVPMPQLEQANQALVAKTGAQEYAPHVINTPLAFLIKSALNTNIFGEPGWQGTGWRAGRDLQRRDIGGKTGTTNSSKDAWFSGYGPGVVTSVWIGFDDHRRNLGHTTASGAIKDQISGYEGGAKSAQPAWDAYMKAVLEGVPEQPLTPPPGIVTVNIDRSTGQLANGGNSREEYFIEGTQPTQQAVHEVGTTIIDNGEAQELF
Chain of E. coli PBP2 (P0AD65 whole entry): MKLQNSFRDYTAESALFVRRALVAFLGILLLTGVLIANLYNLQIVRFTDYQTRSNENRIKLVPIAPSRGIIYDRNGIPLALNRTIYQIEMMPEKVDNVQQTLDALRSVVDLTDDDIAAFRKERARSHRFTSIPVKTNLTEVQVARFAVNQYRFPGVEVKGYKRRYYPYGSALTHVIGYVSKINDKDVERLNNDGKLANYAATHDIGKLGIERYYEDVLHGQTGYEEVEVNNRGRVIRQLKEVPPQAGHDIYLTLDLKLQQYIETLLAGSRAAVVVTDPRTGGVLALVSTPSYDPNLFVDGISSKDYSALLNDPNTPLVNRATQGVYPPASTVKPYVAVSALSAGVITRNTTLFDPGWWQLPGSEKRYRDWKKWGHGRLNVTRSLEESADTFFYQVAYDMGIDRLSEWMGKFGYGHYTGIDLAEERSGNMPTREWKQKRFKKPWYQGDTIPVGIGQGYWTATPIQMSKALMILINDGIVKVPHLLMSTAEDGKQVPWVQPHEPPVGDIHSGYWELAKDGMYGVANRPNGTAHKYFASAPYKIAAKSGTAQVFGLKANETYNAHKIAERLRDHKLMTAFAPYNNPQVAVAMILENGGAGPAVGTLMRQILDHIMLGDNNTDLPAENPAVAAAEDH

With `CCN1CCN(C(=O)NC(C(=O)N[C@H]2Cc3cccc(C(=O)O)c3OB2O)C(O)c2ccc(O)c(O)c2)C(=O)C1=O` (stereo partly drawn) [Example 46, (3R)-3-(3-(3,4-dihydroxyphenyl)-2-(4-ethyl-2,3-dioxopiperazine-1-carboxamido)-3-hydroxypropanamido)-2-hydroxy-3,4-dihydro-2H-benzo[e][1,2]oxaborinine-8-carboxylic acid], the EC50 in experiment [1] was less than 10 µM; in experiment [2] it was 30 to 500 µM.
As for `CCN1CCN(C(=O)N[C@@H](C(=O)N[C@H]2Cc3ccc(F)c(C(=O)O)c3OB2O)c2ccsc2)C(=O)C1=O` [Example 138, (R)-3-((R)-2-(4-ethyl-2,3-dioxopiperazine-1-carboxamido)-2-(thiophen-3-yl)acetamido)-7-fluoro-2-hydroxy-3,4-dihydro-2H-benzo[e][1,2]oxaborinine-8-carboxylic acid], the EC50 in experiment [2] was less than 30 µM; in experiment [7], greater than 500 µM. Further, the MIC was greater than 128 µg/mL in experiment [3], greater than 128 µg/mL in experiment [4], 32 to 64 µg/mL in experiment [5] and 0.5 to 1 µg/mL in [6].
As for `CCN1CCN(C(=O)NC(C(=O)N[C@H]2Cc3cccc(C(=O)O)c3OB2O)c2ccc(OCCF)cc2)C(=O)C1=O` (stereo partly drawn) [Example 76, (3R)-3-(2-(4-ethyl-2,3-dioxopiperazine-1-carboxamido)-2-(4-(2-fluoroethoxy)phenyl)acetamido)-2-hydroxy-3,4-dihydro-2H-benzo[e][1,2]oxaborinine-8-carboxylic acid], the values for the EC50 in experiment [1] and in experiment [2] were less than 10 µM and 30 to 500 µM, respectively. Moreover, the MIC in experiment [8] lay within 128 to 256 mg/L (≈ 224 to 449 µM).
The corresponding values for `CCN1CCN(C(=O)NC(C(=O)N[C@H]2Cc3cccc(C(=O)O)c3OB2O)c2ccc(O)nc2F)C(=O)C1=O` (stereo partly drawn) [Example 86, (3R)-3-(2-(4-ethyl-2,3-dioxopiperazine-1-carboxamido)-2-(2-fluoro-6-hydroxypyridin-3-yl)acetamido)-2-hydroxy-3,4-dihydro-2H-benzo[e][1,2]oxaborinine-8-carboxylic acid] are less than 10 µM, 30 to 500 µM and 128 to 256 mg/L (≈ 236 to 471 µM).
Take `O=C(O)c1cccc2c1OB(O)[C@@H](NC(=O)C(NC(=O)N1CCN(CCF)C(=O)C1=O)c1ccc(O)cn1)C2` (stereo partly drawn) [Example 99, (3R)-3-(2-(4-(2-fluoroethyl)-2,3-dioxopiperazine-1-carboxamido)-2-(5-hydroxypyridin-2-yl)acetamido)-2-hydroxy-3,4-dihydro-2H-benzo[e][1,2]oxaborinine-8-carboxylic acid]: the EC50 is 10 to 100 µM in [1] and less than 30 µM in [2] (fluorescence polarization competition binding with Bocillin-FL, read-out: E. coli K12 PBP3 Potency). Further, the MIC in experiment [8] is 32 to 64 mg/L (≈ 58.9 to 118 µM); in experiment [9], less than 0.25 µg/mL; in experiment [10] it was 8 to 16 µg/mL; in experiment [11] it was 2 to 4 µg/mL; in experiment [12], 32 to 64 µg/mL; in experiment [13], 32 to 64 µg/mL.
